The IC50 is the concentration at which inhibition is half-maximal. As a reminder, the IC90 is the point of the concentration-response curve where the effect stands at 90%. As usually defined, the MBC is the smallest concentration meeting the test's criterion for killing. Usually MIC stands for the least concentration at which growth counts as inhibited. Broadly, the MFC is the lowest tested concentration that kills the fungus rather than only halting it.

Data on nine molecules can be found in ChEMBL document CHEMBL3217667, “Extended side chain analogues of 8-aminoquinolines: Synthesis and evaluation of antiprotozoal, antimicrobial, -hematin inhibition, and cytotoxic activities” (Medchemcomm, 2011).

For data set [1], the system named is Staphylococcus aureus. In words: Antibacterial activity against methicillin-resistant Staphylococcus aureus up to 20 ug/ml. In kind it is functional, organism-based.
Data set [2] deals with Mycobacterium intracellulare. In words: Antibacterial activity against Mycobacterium intracellulare up to 20 ug/ml. It counts as functional, organism-based.
The test system of data set [3] is Plasmodium falciparum. In words: Antimalarial activity against chloroquine-sensitive Plasmodium falciparum D6 by lactate dehydrogenase assay. It counts as functional, organism-based. To be noted: Plasmodium falciparum, D6; read-out: IC50.
Data set [4] can be described thus: Selectivity index, ratio of IC50 for African green monkey Vero cells to IC50 for chloroquine-sensitive Plasmodium falciparum D6. In kind it is toxicity, cell-based. The settings on record: read-out: Ratio IC50.
Data set [5] has as its system Plasmodium falciparum. The data set can be described thus: Antimalarial activity against chloroquine-resistant Plasmodium falciparum W2 by lactate dehydrogenase assay. In kind it is functional, organism-based. The settings on record: Plasmodium falciparum, W2; read-out: IC50.
The nature of data set [6]: Selectivity index, ratio of IC50 for African green monkey Vero cells to IC50 for chloroquine-resistant Plasmodium falciparum W2. In kind it is toxicity, cell-based. The settings on record: read-out: Ratio IC50.
Data set [7] has as its system Vero. The data set can be described thus: Cytotoxicity against African green monkey Vero cells by neutral red uptake assay. In kind it is cell-based. To be noted: Chlorocebus sabaeus.
In data set [8] the test system is SK-MEL. The data set can be described thus: Cytotoxicity against human SK-MEL cells by neutral red uptake assay. It counts as cell-based.
Data set [9] concerns KB. In words: Cytotoxicity against human KB cells by neutral red uptake assay. It counts as cell-based.
For data set [10], the system named is BT-549. The data set can be described thus: Cytotoxicity against human BT549 cells by neutral red uptake assay. In kind it is cell-based.
The subject of data set [11] is SK-OV-3. The data set can be described thus: Cytotoxicity against human SKOV3 cells by neutral red uptake assay. In kind it is cell-based.
In data set [12] the test system is LLC-PK1. The data set can be described thus: Cytotoxicity against pig LLC-PK1 cells by neutral red uptake assay. The settings on record: Sus scrofa. In kind it is cell-based.
The nature of data set [13]: Inhibition of beta-hematin formation after 16 hrs. In kind it is physicochemical.
The test system of data set [14] is Leishmania donovani. The data set can be described thus: Antileishmanial activity against Leishmania donovani promastigotes by Alamar Blue assay. It counts as functional, organism-based. (Alamar Blue is a resazurin reagent that responds to reducing activity.)
The test system of data set [15] is Plasmodium berghei. The data set can be described thus: Antimalarial activity against Plasmodium berghei infected in mouse assessed as reduction in parasitemia at 100 mg/kg/day, po for 4 days measured up to day 14. In kind it is functional.
Data set [16] concerns Staphylococcus aureus. The data set can be described thus: Antibacterial activity against Staphylococcus aureus. In kind it is functional, organism-based.
Data set [17] deals with Staphylococcus aureus. The data set can be described thus: Antibacterial activity against methicillin-resistant Staphylococcus aureus. It counts as functional, organism-based.
Data set [18] concerns Mycobacterium intracellulare. In words: Antibacterial activity against Mycobacterium intracellulare. In kind it is functional, organism-based.
Data set [19] relates to Cryptococcus neoformans. The data set can be described thus: Antifungal activity against Cryptococcus neoformans by broth microdilution assay. In kind it is functional, organism-based. A general note: Broth dilution looks for growth in wells or tubes with falling amounts of substance.
For data set [20], the system named is Pseudomonas aeruginosa. The data set can be described thus: Antibacterial activity against Pseudomonas aeruginosa. It counts as functional, organism-based.
Data set [21] has as its system Escherichia coli. The data set can be described thus: Antibacterial activity against Escherichia coli. In kind it is functional, organism-based.
The subject of data set [22] is Candida albicans. The data set can be described thus: Antifungal activity against Candida albicans by broth microdilution assay. It counts as functional, organism-based.
Data set [23] concerns Nakaseomyces glabratus. The data set can be described thus: Antifungal activity against Candida glabrata by broth microdilution assay. It counts as functional, organism-based.
In data set [24] the test system is Pichia kudriavzevii. The data set can be described thus: Antifungal activity against Candida krusei by broth microdilution assay. It counts as functional, organism-based.
Data set [25] concerns Aspergillus fumigatus. The data set can be described thus: Antifungal activity against Aspergillus fumigatus by broth microdilution assay. It counts as functional, organism-based.

In brackets after ≈: the same amount, converted by molar mass. Activity calls are given as the source filed them.

For the molecule `CCCCOc1c(OC)cc(NC(C)CCCNC(C)CCCNC(C)CCCN)c2nccc(CC)c12.Cl` (centres undefined), the outcome in [1], in data set [2], in data set [15], in data set [20], in [21] and in data set [22] was inactive. The outcome in data set [23], in data set [24] and in data set [25] was inactive. For the same molecule, the IC50 in [3] was 0.54 µg/mL; in data set [5] it was 0.58 µg/mL; in [7], more than 23.8 µg/mL; in data set [8], more than 23.8 µg/mL; in [9], more than 23.8 µg/mL; in data set [10], more than 23.8 µg/mL. Further, the IC50 in data set [11] is more than 23.8 µg/mL; in data set [12], more than 23.8 µg/mL; in data set [13], 19.7 µM; in [14], 14 µg/mL; in data set [16], 12 µg/mL; in [17] it was more than 20 µg/mL. Further, the IC50 in data set [18] was more than 20 µg/mL; in [19] it was 12.1 µg/mL. Also, the figures for the selectivity ratio in data set [4] and in data set [6] were more than 44 and more than 41, respectively. Further, it took 32 µg/mL to reach the 90% level in [14] (IC90). The MBC in [16] is 20 µg/mL. Also, the MIC in data set [16] and in [19] was 20 µg/mL in each case. This molecule returned an MFC in [19] of 20 µg/mL.

Take `C[C@@H]1CC[C@H]2[C@@H](C)C(=O)O[C@@H]3O[C@@]4(C)CC[C@@H]1[C@]32OO4` [ARTEMISININ]: the selectivity ratio in [4] was determined as 1560; in data set [6] it was 2640.

Consider `CCCCCOc1c(OC)cc(NC(C)CCCNC(C)CCCN)c2nccc(CC)c12.Cl` (centres undefined), for which the result in data set [2], in data set [15], in data set [20], in data set [21], in [22] and in data set [23] was inactive. The outcome in data set [24] and in [25] was inactive. Further, the IC50 is 0.52 µg/mL in data set [3]; 0.18 µg/mL in data set [5]; more than 23.8 µg/mL in [7]; more than 23.8 µg/mL in data set [8]; more than 23.8 µg/mL in data set [9]; more than 23.8 µg/mL in data set [10]. Moreover, the IC50 was more than 23.8 µg/mL in data set [11]; more than 23.8 µg/mL in data set [12]; 9.6 µM in data set [13]; 3.7 µg/mL in data set [14]; 13.6 µg/mL in [16]; 13.4 µg/mL in [17]. In addition, the IC50 in [18] was more than 20 µg/mL; in data set [19], 5.8 µg/mL. The selectivity ratio in data set [4] was more than 45.7; in [6], more than 132. This molecule also yielded an IC90 in data set [14] of 7 µg/mL. Also, the MBC in [16] and in data set [17] was 20 µg/mL in each case. Besides, the MIC in data set [16] stood at 20 µg/mL; in data set [17], 20 µg/mL; in data set [19], 10 µg/mL. The molecule also showed an MFC in [19] of 10 µg/mL.

As to `CCCCCOc1c(OC)cc(NC(C)CCCNC(C)CCCNC(C)CCCN)c2nccc(CC)c12.Cl` (centres undefined), the result in data set [2], in [15], in [20], in [21], in [22] and in [23] was inactive. The result in data set [24] and in data set [25] was inactive. For the same molecule, the IC50 in data set [3] was 0.57 µg/mL; in data set [5], 0.48 µg/mL; in data set [7], more than 23.8 µg/mL; in data set [8] it was more than 23.8 µg/mL; in data set [9], more than 23.8 µg/mL; in [10], more than 23.8 µg/mL. Besides, the IC50 is more than 23.8 µg/mL in [11]; more than 23.8 µg/mL in [12]; 20.8 µM in [13]; 3.5 µg/mL in [14]; 8.6 µg/mL in data set [16]; 9.5 µg/mL in data set [17]. Besides, the figures for the IC50 in [18] and in data set [19] were 16.6 µg/mL and 5.5 µg/mL, respectively. The selectivity ratio in data set [4] was more than 41.7; in [6] it was more than 49.5. In data set [14], this molecule returned an IC90 of 7 µg/mL. Further, the MBC in data set [16] and in data set [17] was 20 µg/mL each time. Moreover, the MIC in [16] turned out to be 20 µg/mL; in data set [17], 20 µg/mL; in data set [18], 20 µg/mL; in data set [19] it was 10 µg/mL. This molecule displayed an MFC in [19] of 10 µg/mL.

In turn, `CCN(CC)CCCC(C)Nc1ccnc2cc(Cl)ccc12` (centres undefined) [CHLOROQUINE] returned an IC50 in data set [13] of 80 µM.

The molecule `C[C@@H]1[C@H](O)[C@@H](C)/C=C/C=C/C=C/C=C/C=C/C=C/C=C/[C@H](O[C@@H]2O[C@H](C)[C@@H](O)[C@H](N)[C@@H]2O)C[C@@H]2O[C@](O)(C[C@@H](O)C[C@@H](O)[C@H](O)CC[C@@H](O)C[C@@H](O)CC(=O)O[C@H]1C)C[C@H](O)[C@H]2C(=O)O` [AMPHOTERICIN B] displayed an IC90 in data set [14] of 0.35 µg/mL (≈ 0.379 µM). This molecule also gave an MFC in data set [19] of 1.5 µg/mL (≈ 1.62 µM). For the same molecule, in data set [23], the minimum fungicidal concentration (MFC) stood at 0.625 µg/mL (≈ 0.676 µM) and the MIC is 0.31 µg/mL (≈ 0.335 µM).

Turning to `CCCCOc1c(OC)cc(NC(C)CCCNC(C)CCCNC(C)CCCNC(C)CCCN)c2nccc(CC)c12.Cl` (centres undefined), the result in data set [1], in data set [2], in data set [15], in data set [20], in data set [21] and in data set [22] was inactive. The outcome in [23], in data set [24] and in data set [25] was inactive. Also, the IC50 was 0.49 µg/mL in data set [3]; 0.35 µg/mL in [5]; more than 23.8 µg/mL in data set [7]; more than 23.8 µg/mL in data set [8]; more than 23.8 µg/mL in [9]; more than 23.8 µg/mL in [10]. The IC50 in [11] is more than 23.8 µg/mL; in data set [12], more than 23.8 µg/mL; in data set [13], 10.7 µM; in [14] it was 3.2 µg/mL; in [16], 13.6 µg/mL; in [17] it was 13.2 µg/mL. Also, the figures for the IC50 in [18] and in data set [19] were 15 µg/mL and 8 µg/mL, respectively. The selectivity ratio is more than 48.5 in data set [4] and more than 68 in [6]. The molecule also registered an IC90 in data set [14] of 7 µg/mL. The same molecule registered an MBC in data set [16] of 20 µg/mL. Further, the MIC in data set [16], in data set [17] and in [19] was 20 µg/mL throughout. In data set [19], the MFC was 20 µg/mL.

With `CCCCCOc1c(OC)cc(NC(C)CCCNC(C)CCCNC(C)CCCNC(C)CCCN)c2nccc(CC)c12.Cl` (centres undefined), the result in [2], in data set [15], in data set [20], in [21], in data set [22] and in data set [23] was inactive. The outcome in [24] and in data set [25] was inactive. For the same molecule, the IC50 in data set [3] was 0.44 µg/mL; in data set [5], 0.42 µg/mL; in data set [7], more than 23.8 µg/mL; in [8] it was more than 23.8 µg/mL; in data set [9] it was more than 23.8 µg/mL; in data set [10] it was more than 23.8 µg/mL. The IC50 in data set [11] was more than 23.8 µg/mL; in [12], more than 23.8 µg/mL; in data set [13], 11.2 µM; in [14] it was 3.1 µg/mL; in data set [16], 9.8 µg/mL; in [17] it was 11 µg/mL. For the same molecule, the values for the IC50 in [18] and in data set [19] were 17.8 µg/mL and 5.6 µg/mL, respectively. The selectivity ratio in data set [4] was more than 54; in [6], more than 56.6. The IC90 in [14] came to 7 µg/mL. Besides, the MBC in data set [16] and in [17] was 20 µg/mL each time. In addition, the MIC in data set [16] was found to be 20 µg/mL; in data set [17], 20 µg/mL; in [18], 20 µg/mL; in [19], 10 µg/mL. Also, in data set [19], the MFC came to 10 µg/mL.

Take `N=C(N)c1ccc(OCCCCCOc2ccc(C(=N)N)cc2)cc1` [PENTAMIDINE]: in data set [14], the IC90 stood at 3.8 µg/mL (≈ 11.2 µM).
